Data from ChEMBL document CHEMBL1201862, “PubChem BioAssay data set” (2004).
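Grown in 96-well plates, cells were treated for 48 hours with each compound at five concentrations. Insufficient inhibition: endpoint recorded as highest concentration tested. Abbreviation: GI50, concentration required for 50% inhibition of growth.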 The source made the active and inactive calls. Rule as the data show it: active = GI50 up to about 1.1 µM and inactive = higher.

Assays:
Experiment in all cases: growth of human tumour cells (NCI), 48 h
786-0 = test system: 786-0
A498 = test system: A498
A549 = test system: A549
ACHN = test system: ACHN
CAKI-1 = test system: CAKI-1
CCRF-CEM = test system: CCRF-CEM
COLO 205 = test system: COLO 205
DLD-1 = test system: DLD-1
DMS-273 = test system: DMS-273
EKVX = test system: EKVX
HCC 2998 = test system: HCC 2998
HCT-116 = test system: HCT-116
HCT-15 = test system: HCT-15
HL-60 = test system: HL-60
HOP-18 = test system: HOP-18
HOP-62 = test system: HOP-62
HOP-92 = test system: HOP-92
HT-29 = test system: HT-29
IGROV-1 = test system: IGROV-1
K562 = test system: K562
KM-20L2 = test system: KM-20L2
KM12 = test system: KM12
LOX IMVI = test system: LOX IMVI
M14 = test system: M14
M19-MEL = test system: M19-MEL
MOLT-4 = test system: MOLT-4
Malme-3M = test system: Malme-3M
NCI-H226 = test system: NCI-H226
NCI-H23 = test system: NCI-H23
NCI-H460 = test system: NCI-H460
NCI-H522 = test system: NCI-H522
OVCAR-3 = test system: OVCAR-3
OVCAR-4 = test system: OVCAR-4
OVCAR-5 = test system: OVCAR-5
OVCAR-8 = test system: OVCAR-8
RPMI-8226 = test system: RPMI-8226
RXF 393 = test system: RXF 393
RXF 631 = test system: RXF 631
SF-268 = test system: SF-268
SF-295 = test system: SF-295
SF-539 = test system: SF-539
SK-MEL-28 = test system: SK-MEL-28
SK-MEL-2 = test system: SK-MEL-2
SK-MEL-5 = test system: SK-MEL-5
SK-OV-3 = test system: SK-OV-3
SN12C = test system: SN12C
SNB-19 = test system: SNB-19
SNB-75 = test system: SNB-75
SNB-78 = test system: SNB-78
SW-620 = test system: SW-620
TK-10 = test system: TK-10
U-251 = test system: U-251
UACC-257 = test system: UACC-257
UACC-62 = test system: UACC-62
UO-31 = test system: UO-31
DMS-114 = test system: DMS-114
LXFL 529 = test system: LXFL 529
SR = test system: SR

`O=C(CCCCCCCCC(=O)OCCCn1cc(C(=O)NC(=O)OCc2ccccc2)c(=O)[nH]c1=O)OCCCn1cc(C(=O)NC(=O)OCc2ccccc2)c(=O)[nH]c1=O` was tested, and the GI50 (786-0) was > 100 µM (inactive), the GI50 (A498) was > 100 µM (inactive) and the GI50 (A549) was > 100 µM (inactive). For the same molecule, the GI50 (ACHN) was > 100 µM (inactive), the GI50 (CAKI-1) was > 100 µM (inactive) and the GI50 (CCRF-CEM) was > 100 µM (inactive). For the same molecule, the GI50 (COLO 205) was > 100 µM (inactive), the GI50 (DLD-1) was > 100 µM (inactive) and the GI50 (DMS-273) was > 100 µM (inactive). The GI50 (EKVX) was > 100 µM (inactive), the GI50 (HCC 2998) was > 100 µM (inactive) and the GI50 (HCT-116) was > 100 µM (inactive). For the same molecule, the GI50 (HCT-15) was over 100 µM, the GI50 (HL-60) was > 100 µM (inactive) and the GI50 (HOP-18) was > 100 µM (inactive). For the same molecule, the GI50 (HOP-62) was > 100 µM (inactive), the GI50 (HOP-92) was > 100 µM (inactive) and the GI50 (HT-29) was > 100 µM (inactive). For the same molecule, the GI50 (IGROV-1) was > 100 µM (inactive), the GI50 (K562) was > 100 µM (inactive) and the GI50 (KM-20L2) was > 100 µM (inactive). The GI50 (KM12) was > 100 µM (inactive), the GI50 (LOX IMVI) was > 100 µM (inactive) and the GI50 (M14) was > 100 µM (inactive). For the same molecule, the GI50 (M19-MEL) was > 100 µM (inactive), the GI50 (MOLT-4) was > 100 µM (inactive) and the GI50 (Malme-3M) was > 100 µM (inactive). The GI50 (NCI-H226) was > 100 µM (inactive), the GI50 (NCI-H23) was > 100 µM (inactive) and the GI50 (NCI-H460) was > 100 µM (inactive). The GI50 (NCI-H522) was > 100 µM (inactive), the GI50 (OVCAR-3) was > 100 µM (inactive) and the GI50 (OVCAR-4) was > 100 µM (inactive). For the same molecule, the GI50 (OVCAR-5) was > 100 µM (inactive), the GI50 (OVCAR-8) was > 100 µM (inactive) and the GI50 (RPMI-8226) was > 100 µM (inactive). For the same molecule, the GI50 (RXF 393) was > 100 µM (inactive), the GI50 (RXF 631) was > 100 µM (inactive) and the GI50 (SF-268) was > 100 µM (inactive). The GI50 (SF-295) was > 100 µM (inactive), the GI50 (SF-539) was > 100 µM (inactive) and the GI50 (SK-MEL-28) was > 100 µM (inactive). The GI50 (SK-MEL-2) was > 100 µM (inactive), the GI50 (SK-MEL-5) was > 100 µM (inactive) and the GI50 (SK-OV-3) was > 100 µM (inactive). The GI50 (SN12C) was > 100 µM (inactive), the GI50 (SNB-19) was > 100 µM (inactive) and the GI50 (SNB-75) was 54.1 µM (inactive). The GI50 (SNB-78) was > 100 µM (inactive), the GI50 (SW-620) was > 100 µM (inactive) and the GI50 (TK-10) was > 100 µM (inactive). For the same molecule, the GI50 (U-251) was > 100 µM (inactive), the GI50 (UACC-257) was > 100 µM (inactive) and the GI50 (UACC-62) was > 100 µM (inactive). For the same molecule, the GI50 (UO-31) was > 100 µM (inactive).

For `O=C1CCCCC12CCC/C2=N\O` (configuration not stated), the GI50 (786-0) was > 100 µM (inactive), the GI50 (A498) was > 100 µM (inactive) and the GI50 (A549) was > 100 µM (inactive). For the same molecule, the GI50 (ACHN) was > 100 µM (inactive), the GI50 (CAKI-1) was > 100 µM (inactive) and the GI50 (CCRF-CEM) was > 100 µM (inactive). For the same molecule, the GI50 (COLO 205) was > 100 µM (inactive), the GI50 (DLD-1) was > 100 µM (inactive) and the GI50 (DMS-114) was > 100 µM (inactive). The GI50 (DMS-273) was > 100 µM (inactive), the GI50 (EKVX) was > 100 µM (inactive) and the GI50 (HCC 2998) was > 100 µM (inactive). The GI50 (HCT-116) was > 100 µM (inactive), the GI50 (HCT-15) was over 100 µM and the GI50 (HL-60) was > 100 µM (inactive). The GI50 (HOP-18) was > 100 µM (inactive), the GI50 (HOP-62) was > 100 µM (inactive) and the GI50 (IGROV-1) was > 100 µM (inactive). For the same molecule, the GI50 (K562) was > 100 µM (inactive), the GI50 (KM-20L2) was > 100 µM (inactive) and the GI50 (KM12) was > 100 µM (inactive). For the same molecule, the GI50 (LXFL 529) was > 100 µM (inactive), the GI50 (M14) was > 100 µM (inactive) and the GI50 (M19-MEL) was > 100 µM (inactive). The GI50 (MOLT-4) was > 100 µM (inactive), the GI50 (Malme-3M) was > 100 µM (inactive) and the GI50 (NCI-H226) was > 100 µM (inactive). For the same molecule, the GI50 (NCI-H460) was > 100 µM (inactive), the GI50 (NCI-H522) was > 100 µM (inactive) and the GI50 (OVCAR-3) was > 100 µM (inactive). For the same molecule, the GI50 (OVCAR-4) was > 100 µM (inactive), the GI50 (OVCAR-8) was > 100 µM (inactive) and the GI50 (RPMI-8226) was > 100 µM (inactive). The GI50 (RXF 393) was > 100 µM (inactive), the GI50 (RXF 631) was > 100 µM (inactive) and the GI50 (SF-268) was > 100 µM (inactive). The GI50 (SF-539) was > 100 µM (inactive), the GI50 (SK-MEL-28) was > 100 µM (inactive) and the GI50 (SK-MEL-2) was > 100 µM (inactive). The GI50 (SK-MEL-5) was > 100 µM (inactive), the GI50 (SK-OV-3) was > 100 µM (inactive) and the GI50 (SN12C) was > 100 µM (inactive). For the same molecule, the GI50 (SNB-19) was > 100 µM (inactive), the GI50 (SNB-75) was > 100 µM (inactive) and the GI50 (SNB-78) was > 100 µM (inactive). The GI50 (SR) was > 100 µM (inactive), the GI50 (SW-620) was > 100 µM (inactive) and the GI50 (TK-10) was > 100 µM (inactive). For the same molecule, the GI50 (U-251) was > 100 µM (inactive), the GI50 (UACC-257) was > 100 µM (inactive) and the GI50 (UACC-62) was > 100 µM (inactive). For the same molecule, the GI50 (UO-31) was > 100 µM (inactive).
